Test results: patent US20050026958A1, “Methods of therapeutic treatment using amounts of retinoid components” (Allergan, Inc., priority 2003, published 2005)

What was measured:
[1] = system: RXR retinoid receptors; details: cited from earlier work
[2] = Food effect (high-fat meal vs fast) on pharmacokinetics of tazarotenic acid after 6.3 mg oral tazarotene; assay type: in vivo, human; details: healthy subjects
[3] = system: patients with severe nodulocystic acne; experiment: Multicenter double-blind randomized placebo-controlled study of oral tazarotene in severe nodulocystic acne (Example 7); assay type: in vivo, human
From the text: A multicenter, double-blind, randomized, placebo-controlled parallel-group study is undertaken to determine the efficacy of orally administered tazarotene in treating severe nodulocystic acne.
In addition, washout periods for other medications for this study are: 1 week for vitamin A supplements >5000 IU; 2 weeks for topical anti-acne medications (e.g., retinoids, azelaic acid, benzoyl peroxide); 2 weeks for topical or systemic antibiotic therapy that may alter the course of acne; and 6 months for systemic retinoids.
Patients are randomized to receive placebo or oral tazarotene (0.75, 1.5, 3, or 6 mg), in a 1:1:1:1:1 ratio once daily for 24 weeks. After this, the patients are followed without treatment for an additional 12 weeks. Patients discontinuing from the treatment period due to adverse effects or lack of efficacy are eligible for entry into the post-treatment phase.
In the study, overall acne severity is rated as: none (no inflammatory acne lesions); mild (few to several papules or pustules, no nodulocystic lesions); moderate (several to many papules or pustules, few to several nodulocystic lesions); and severe (numerous or extensive papules or pustules, many, for example, at least about 5 or at least about 10, nodulocystic lesions).
Treatment success is defined as at least moderate (about 50%) improvement on the following 7-point global response scale: • 0=completely cleared • 1=almost cleared (about 90% improvement) • 2=marked response (about 75% improvement) • 3=moderate response (about 50% improvement) • 4=slight response (about 25% improvement) • 5=condition unchanged • 6=condition worsened
In this study, facial nodulocystic lesion count includes lesions greater than 5 mm in size. Facial papular/pustular lesion count includes lesions less than or equal to 5 mm in size. Facial non-inflammatory lesion count includes open and closed comedones.
(§1) Sebum output is assessed every 4 weeks at selected centers using the Sebutape® patches, sold by Cuderm Corporation. Urinalysis, chemistry, and hematology values are monitored. Bone formation and resorption assessments (serum bone alkaline phosphatase and serum amino terminal telopeptides, respectively) at selected centers are monitored.
Bone mineral density of spine and proximal femur at selected centers is monitored. Ligament calcification or osteophyte formation (lateral X-ray of the cervical and thoracic spine, and ankle calcaneous) is monitored. Epiphyseal growth plate closure (internal oblique X-ray of the ankle in patients less than or equal to 21 years old) is monitored.

[4] = system: patients having nodulocystic acne; experiment: Two placebo-controlled dose-ranging safety studies of oral tazarotene in nodulocystic acne (Example 4); assay type: in vivo, human; details: for joint disorder during treatment period: placebo 0%; for arthralgia during treatment period: placebo 6%; for myalgia during treatment period: placebo 9%; for asthenia during treatment period: placebo 13%; for dry skin during treatment period: placebo 19%; for headache during treatment period: placebo 28%; for cheilitis during treatment period: placebo 31%; for emotional lability (all cases mild): placebo 4%
Method: Two placebo-controlled dose-ranging studies are conducted to evaluate the safety of oral tazarotene in patients having nodulocystic acne. In the first study, patients receive orally administered tazarotene at daily doses of 0.4 mg to 2.8 mg in 96 (71+25) patients (12 weeks treatment plus 12 weeks post-treatment). In the second study, daily doses of 0.75 mg to 6 mg tazarotene are administered to 181 patients (24 weeks treatment plus 12 weeks post-treatment).

[5] = system: patients (psoriasis); experiment: Adverse event monitoring in Phase 3 studies of orally administered tazarotene for psoriasis (Table 1); assay type: in vivo, human; details: Taz 4.5 mg, combined Studies 1 and 2 (N = 348)
Method: A series of Phase 3 studies are conducted on orally administered tazarotene for the treatment of psoriasis. Adverse events (side effects) are monitored. In addition, published data for acitretin's side effects are also considered.

[6] = system: patients; experiment: Two placebo-controlled 24-week safety studies of oral tazarotene plus 16- to 24-week dose-response evaluations (Example 3); assay type: in vivo, human; details: 4.5 mg orally once daily vs placebo
Method: Two multicenter, double-blind, randomized, placebo-controlled 24-week studies of identical design are conducted to evaluate the safety of oral tazarotene. In addition, 16- to 24-week dose-response evaluations are performed.
In the two safety trials, the incidence of adverse side effects with a 4.5 mg dose administered orally once daily is compared to the incidence of the same side effects with a placebo. […] The majority of these were mild in severity and typical of adverse effects associated with oral retinoids.

[7] = system: patients (acne); experiment: Adverse event monitoring in studies of orally administered tazarotene for acne (Table 2); assay type: in vivo, human; details: oral tazarotene for acne, combined Studies 1 and 2 (N = 223)
Method: Studies are conducted on orally administered tazarotene for the treatment of acne. Adverse events (side effects) are monitored.

[8] = system: sebum secretion; experiment: Sebum output by Sebutape patches in the Example 7 study; assay type: in vivo, human; details: oral tazarotene 0.75 to 6 mg once daily, maximum of 86 patients
Method: as §1

[9] = system: sebum secretion; details: published reports (Geiger); cited from earlier work
[10] = oral tazarotene 0.4 to 6 mg daily

CC1(C)CCSc2ccc(C#Cc3ccc(C(=O)O)cn3)cc21 [tazarotenic acid]
activation of RXR retinoid receptors [1]: does not activate | effect of high-fat meal on bioavailability or pharmacokinetics of tazarotenic acid ([2]; 6.3 mg oral tazarotene, single and multiple dose): does not substantially affect | average ratio of Cmax values (test/reference) ([2]; Day 0, 6.3 mg oral tazarotene after high fat breakfast vs 8-10 hour fast): 1.00

CCOC(=O)c1ccc(C#Cc2ccc3c(c2)C(C)(C)CCS3)nc1 [tazarotene]
patients withdrawing due to adverse events in treatment period ([3]; 0.75 mg group (2/35), placebo 0%): 6% | patients withdrawing due to adverse events in treatment period ([3]; 1.5 mg group (0/37)): 0% | incidence of treatment success (≧50% global improvement) vs placebo ([3]; 3 mg and 6 mg, week 24 and throughout post-treatment phase (p≦0.05)): significantly higher incidence of treatment success | patients withdrawing due to adverse events in treatment period ([3]; 3 mg group (2/37)): 5% | patients withdrawing due to adverse events in treatment period ([3]; 6 mg group (1/36)): 3% | bone formation and resorption (serum bone alkaline phosphatase, serum amino terminal telopeptides) ([3]; all treatment groups): do not appear to be altered | changes in urinalysis, chemistry, or hematology measures (incl. liver function tests, triglycerides, total cholesterol, HDL cholesterol) ([3]; all treatment groups): None of the treatment groups show any consistent clinically significant changes | ligament calcification, osteophyte formation, or changes in bone density ([3]; all treatment groups): None of the treatment groups show any clinically significant | joint disorder during treatment period ([4]; 2.8 mg, n=11): 27% | arthralgia during treatment period ([4]; 2.8 mg, n=11): 9% | myalgia during treatment period ([4]; 2.8 mg, n=11): 0% | asthenia during treatment period ([4]; 2.8 mg, n=11): 0% | dry skin during treatment period ([4]; 2.8 mg, n=11): 18% | headache during treatment period ([4]; 2.8 mg, n=11): 9% | cheilitis during treatment period ([4]; 2.8 mg, n=11): 64% | emotional lability (all cases mild) ([4]; 3 mg group (1 patient)): 3% | depression ([4]; 3 mg group (3 patients: 2 mild, 1 severe), placebo 2%): 8% | joint disorder during treatment period ([4]; 3 mg, n=37): 14% | arthralgia during treatment period ([4]; 3 mg, n=37): 8% | myalgia during treatment period ([4]; 3 mg, n=37): 16% | asthenia during treatment period ([4]; 3 mg, n=37): 19% | dry skin during treatment period ([4]; 3 mg, n=37): 35% | headache during treatment period ([4]; 3 mg, n=37): 19% | cheilitis during treatment period ([4]; 3 mg, n=37): 78% | emotional lability (all cases mild) ([4]; 6 mg group (5 patients)): 14% | joint disorder during treatment period ([4]; 6 mg, n=36): 19% | arthralgia during treatment period ([4]; 6 mg, n=36): 28% | myalgia during treatment period ([4]; 6 mg, n=36): 25% | asthenia during treatment period ([4]; 6 mg, n=36): 19% | dry skin during treatment period ([4]; 6 mg, n=36): 50% | headache during treatment period ([4]; 6 mg, n=36): 36% | cheilitis during treatment period ([4]; 6 mg, n=36): 94% | severe dry skin ([4]; all groups): No patient has severe dry skin | changes in urinalysis, chemistry, or hematology measures (incl. liver function tests, triglycerides, total cholesterol, HDL cholesterol) [4, 10]: no consistent dose-related clinically significant changes | ligament calcification, osteophyte formation, changes in serum bone alkaline phosphatase, serum amino terminal telopeptides, bone density [4, 10]: not associated with any clinically significant | Atrophy of skin [5]: 0 (0.0) number (%) of patients | Hyperesthesia [5]: 0 (0.0) number (%) of patients | Paresthesia [5]: 7 (2.0) number (%) of patients | incidence of ocular, auditory, or thyroid problems [6]: no statistically significant between-group differences | Conjunctivitis [7]: 0 (0.0) number (%) of patients | Irritation of eyes [7]: 0 (0.0) number (%) of patients | effect on sebum secretion relative to placebo (Sebutape method) [8]: does not substantially reduce sebum secretion relative to placebo

CC1(C)CC[S+]([O-])c2ccc(C#Cc3ccc(C(=O)O)cn3)cc21 (centres unmarked) [sulfoxide derivative]
activation of RXR retinoid receptors [1]: does not activate

CC1=C(/C=C/C(C)=C/C=C/C(C)=C\C(=O)O)C(C)(C)CCC1 [Isotretinoin, isotretinoin]
inhibitory effect on the rate of sebum secretion [9]: about 90%
